Literature values as cited in patent US20070141140A1, “Semi-solid formulations for immediate release intended for the oral administration of drugs” (PHARMACIA ITALISA S.P.A., priority 2003, published 2007).

Settings: for weight concentration in the semi-solid matrix above which dissolution velocity drops significantly: polyethylene glycol or Gelucire 44/14 matrix

Row | Structure (SMILES) | weight concentration in the semi-solid matrix above which dissolution velocity drops significantly | active ingredient released (PEG 1500 matrix, 10% by weight Triamterene, 2 or 5% polysorbate 80 (Tween 80), in an hour)
1 | CN1C(=O)C(O)N=C(c2ccccc2)c2cc(Cl)ccc21 (stereo not drawn) [temazepam, Temazepam] | > 15% | –
2 | Nc1nc(N)c2nc(-c3ccccc3)c(N)nc2n1 [Triamterene] | exceeding 5% | at least 80%
